Legend:
Assay type in all cases: in vivo, zebrafish
[1] = system: zebra fish larvae; assay: Model of epileptic activity: pentetrazole-induced locomotor activity of zebra fish larvae
Experimental: (§1) Compound was tested in zebrafish paradigms reaction to environmental stimuli, epileptic activity and dopaminergic hyperactivity. Zebrafish used in present studies were raised in regular conditions of housing in tanks of appropriate size and circadian rhythm (12:12 photoperiod, light/darkness). The aqueous medium used for the maintenance and experimental conditions was Instant Ocean®. The water maintained between at 27° C. or 29° C., pH between 7.2-7.5 and a conductivity value between 480-520 μS. Zebrafish embryos were placed in sterile petri dishes before being transferred to plates after the hatching.
(§2) For experimental studies, larvae of up to 5 dpf were placed in flat bottom 96-well plates. At the treatment time, the medium was replaced by 150 μL fresh medium. Pentetrazole (PTZ) and/or Cmpd1 (treatment), or vehicle (control) were added (up to 210-240 μL) to the wells followed by video recording.
(§3) Locomotion of larvae was recorded using Noldus daniovisio system equipped with infrared light detection. Ethovision XT15 software controlled the temperature of plate (28° C.) and chamber light conditions. The experimental recording was done with a cycle of light period (20 min) followed by dark period (45 min). After recording data were analysed using Ethovision XT15 software package. The distance moved by larvae was calculated for each period of 2 min recording (FIGS. 1 to 6 and 10) or as accumulated value of distance at 2 min (initiation), at 4 min at 10 min and at 20 min (switch to darkness) or at 60 min (end of recording) (FIGS. 7 and 8).
(§4) All compounds were dissolved in medium or medium containing DMSO at indicated concentrations.

[2] = system: zebra fish larvae; assay: Model of hyperdopaminergic activity: apomorphine-induced locomotor activity of zebra fish larvae
Experimental: as §1, §2, §3, §4
The same methods as disclosed in Example 1 ware carried out for Example 2, except that the pentetrazole was replaced by apomorphine (APO).

[3] = system: zebra fish larvae; assay: Locomotion of zebra fish larvae treated with compound alone, light period followed by dark period; settings: Cmpd1 100 μM alone versus vehicle; FIGS. 5 and 10
Experimental: as §1, §2
as §3, with “Ethovision XT15 software controlled the temperature of plate (28° C.) and chamber light conditions. The experimental recording was done with a cycle of light period (20 min) followed by dark period (45 min).” left out, “8). […]” for “8).”

Compound: CCOC(=O)C1CCN(C(=O)[C@H](C)N(c2ccc(C)cc2)S(C)(=O)=O)CC1 [Cmpd1, ethyl 1-(N-(methylsulfonyl)-N-(p-tolyl)alanyl)piperidine-4-carboxylate]
- locomotion level compared with vehicle treated zebra fishes ([1]; Cmpd1 100 μM, FIG. 2 open circles and FIG. 7): stabilizes locomotion to levels close to normal locomotion
- locomotor activity induced by pentetrazole alone (distance moved) ([1]; co-treatment Cmpd1 100 μM + pentetrazole 10 mM, FIG. 2 and FIG. 7): decrease of the locomotor activity
- conclusion of the epileptic activity model ([1]; pentetrazole model, Cmpd1 100 μM): anti-epileptic activity
- locomotion level compared with vehicle treated zebra fish ([2]; FIG. 5 and FIGS. 9 and 10): stabilizes locomotion to levels close to normal locomotion
- conclusion of the hyperdopaminergic activity model ([2]; apomorphine model): stabilizer of the hyperdopaminergic activity
- locomotor activity induced by apomorphine alone (distance moved) ([2]; co-treatment Cmpd1 100 μM + apomorphine 55 μM, FIG. 9): decrease of the locomotor activity
- locomotor activity induced by apomorphine alone (distance moved) ([2]; co-treatment Cmpd1 100 μM + apomorphine 75 μM, FIG. 4): decrease of the locomotor activity
- apomorphine-induced locomotion activity, time course ([2]; first period of the assay, up to ~20 min, FIG. 9): reduces apomorphine-induced locomotion activity strongly
- locomotion activity and peak due to change to dark condition [3]: maintains a low level of locomotion activity suppressing also the peak due to change to dark condition

Compound: CN1CCc2cccc3c2[C@H]1Cc1ccc(O)c(O)c1-3 [apomorphine, reference compound]
- locomotor activity (distance moved) versus vehicle ([2]; apomorphine alone, 75 μM (FIG. 3) or 55 μM (FIG. 8), light conditions): clear increase of locomotor activity in light conditions

Compound: C1CCc2nnnn2CC1 [pentetrazole, reference compound]
- locomotor activity (distance moved) versus vehicle ([1]; pentetrazole 10 mM alone, larvae up to 5 dpf, light 20 min then dark 45 min, FIGS. 1, 2, 6): clear increase of locomotor activity in both light and dark conditions

— patent US20230057133A1, “COMPOUND FOR THE TREATMENT AND PREVENTION OF CENTRAL NERVOUS SYSTEM DISORDERS” (ABAXYS THERAPEUTICS, priority 2019, published 2023)
